The source of these data is patent publication US20050182124A1, “Ester bacteriostat for stabilizing cosmetics” (VAMA FARMACOSMETICA S.r.l., priority 2004, published 2005).

The structures appear in SMILES notation. Values after ≈ are worked out from the molar mass of the structure shown. Like-named read-outs stand apart in the source and are kept apart here.

In one series the test system is Pseudomonas aeruginosa. Nature of the series: MIC (Minimal Inhibition Concentration) test on bacterial colonies. The series is classed as cell-based. Particulars: read-out: MIC (Minimal Inhibition Concentration). The protocol: (§1) With the purpose of evaluating the bacteriostatic activity of the bacteriostats of the invention, the following MIC (Minimal Inhibition Concentration) tests were carried out on bacterial colonies of “Pseudomonas aeruginosa” (Pa) and of “Staphylococcus aureus” (Sa), respectively with pure phenoxyethanol of formula (IV) and with phenoxyethanol ester of PCA of formula (V) of the invention.

The test system of a further series is Staphylococcus aureus. Described as above. The format is cell-based. Particulars: read-out: MIC (Minimal Inhibition Concentration). As to the method: as §1
In another series the test system is skin. Nature of the series: Patch test (finn chamber) for skin compatibility: primary irritation and allergic response. The format is in vivo, human. The conditions noted are these: 25 healthy volunteers; about 20 μg solid product on the back, finn chamber 48 hours; read 15 mins, 1 hr and 24 hrs after removal. As to the method: The skin compatibility of the bacteriostat according to the invention, in terms of anergic response and of primary Irritation. was tested with the following patch tests.
A panel of 25 healthy volunteers was subjected to the application onto the back of about 20 μg of solid product with the use of a “finn chamber” (patch test). After 48 hours the “finn chamber” was removed and the skin reactions after 15 mins, 1 hr and 24 hrs from removal were clinically evaluated.

Consider `O=C1CCC(C(=O)OCCOc2ccccc2)N1` (stereo not shown) [PCA Ester, phenoxyethanol ester of PCA], for which the MIC in the series on Pseudomonas aeruginosa (Pseudomonas aeruginosa (Pa)) worked out at 1000 µg/mL (≈ 4.01 mM). Moreover, in the series on Staphylococcus aureus (Staphylococcus aureus (Sa)), the MIC came to 1000 µg/mL (≈ 4.01 mM). For the same molecule, in the series with skin, the “skin irritation (primary irritation) in patch test” value is “not to be irritating” and the “skin sensitization in patch test” value was “did not sensitize the skin”.
Turning to `OCCOc1ccccc1` [phenoxyethanol, 2-phenoxyethanol, reference compound], the MIC in the series on Pseudomonas aeruginosa (Pseudomonas aeruginosa) is 3200 µg/mL (≈ 23.2 mM); in the series on Staphylococcus aureus (Staphylococcus aureus), 6400 µg/mL (≈ 46.3 mM). In addition, the “skin irritation (primary irritation) in patch test” value in the series on skin is given as “moderately irritating”.
